Source: patent US20210137809A1, “COSMETIC COMPOSITION FOR WRINKLE REDUCTION OR ANTI-INFLAMMATION, CONTAINING SUBSTANCE P” (Biosolution Co., Ltd, priority 2017, published 2021)

Tests used:
[1] = system: inflammatory cytokine IL-6; assay: Inflammatory cytokine IL-6-reducing effect in LPS-treated Raw 264.7 cells; assay type: cell-based, mouse; details: 100 ng/mL LPS, 24-hr culture, maximum decrease (up to) relative to LPS-treated group, FIG. 5
Protocol: The inflammatory cytokine IL-6-reducing effect of the composition including substance P was examined in Raw 264.7 cells which are mouse macrophages. […] were put in a 24-well plate at a density of 4×10^5 CFU/well, and incubated at 37° C. for 24 hours. A growth medium for Raw 264.7 cells was prepared by mixing DMEM (Welgene, Korea) with 200 mM of L-glutamine (Gibco, USA). After 24-hr culture, the medium was removed, and then 1 mL of a fresh medium was dispensed into each well. To induce intracellular inflammation, 100 ng/mL of LPS (Sigma, USA) was treated thereto, and simultaneously, the composition including substance P or substance P dissolved in a phosphate buffer solution (PBS) was dispensed thereto such that the final volume was 2 mL/well, followed by incubation at 37° C. for 24 hours. In this regard, the concentration of the composition or the substance P added was determined such that its final concentration became a desired concentration, taking into consideration the total volume of the medium. After 24-hr culture, the supernatant was collected, and the amount of inflammatory cytokine IL-6 in the medium was measured by mouse IL-6 immunoassay (R&D systems, USA).
Significant IL-6 reduction was determined using Student's t-test by comparing the IL-6 amount practically measured in the experimental group with that of the LPS-treated group (*p<0.05, **p<0.01).

nitric oxide (NO) = assay: Nitric oxide (NO)-reducing effect in LPS-treated Raw 264.7 cells (Griess reagent); assay type: cell-based, mouse; details: 100 ng/mL LPS, 24-hr culture, maximum decrease (up to), LPS only = 100%, FIG. 6
Protocol: In inflammatory environments, the nitric oxide (NO)-reducing effect of the composition including substance P was examined in Raw 264.7 cells which are mouse macrophages. […] were put in a 24-well plate at a density of 4×10^5 CFU/well, and incubated at 37° C. for 24 hours. A growth medium for Raw 264.7 cells was prepared by mixing DMEM (Welgene, Korea) with 200 mM of L-glutamine (Gibco, USA). After 24-hr culture, the medium was removed, and then 1 mL of a fresh medium was dispensed into each well. […] In this regard, the concentration of the composition or the substance P added was determined such that its final concentration became a desired concentration, taking into consideration the total volume of the medium.
After 24-hr culture, the supernatant was collected, and 100 μL thereof was added to a 96-well plate, and an equal volume of Griess reagent (Sigma, USA) was added thereto, and the plate was left at room temperature for 15 minutes. Then, absorbance at 540 nm was measured. […] The production amount of nitric oxide (NO) in the group treated with LPS only was regarded as 100%, and the amount of nitric oxide (NO) in the medium was determined.
Significant NO reduction was determined using Student's t-test by comparing the NO amount practically measured in the experimental group with that of the LPS-treated group (*p<0.05, **p<0.01).

collagenase (MMP-1) = assay: Collagenase (MMP-1) inhibition effect in skin fibroblasts (Human total MMP-1 kit); assay type: cell-based; details: 24-hr culture, maximum decrease (up to) relative to PBS control, FIG. 4
Protocol: (§1) The collagenase (MMP-1) inhibition effect of the composition including substance P was examined in skin fibroblasts. Human skin fibroblasts were put in a 96-well plate at a density of 3×10^4 CFU/well, and incubated at 37° C. for 24 hours. The medium (FGM, Lonza, USA) was removed, and then 180 μL of a fresh medium was dispensed into each well, and 20 μL of the composition including substance P or substance P dissolved in a phosphate buffer solution (PBS) was added thereto, followed by incubation at 37° C. for 24 hours. In this regard, the concentration of the composition or the substance P added was determined such that its final concentration became a desired concentration, taking into consideration the total volume of the medium. After 24-hr culture, the supernatant was collected, and the amount of collagenase (MMP-1) in the medium was measured using a Human total MMP-1 kit (R&D systems, USA).
(§2) The difference was statistically significant. Statistical analysis was performed using Student's t-test, and the MMP-1 production of each experimental group (*p<0.05, **p<0.01) relative to the control (phosphate buffer solution-treated group) and the MMP-1 productions by substance P dissolved in phosphate buffer solution and the composition of the present invention (#p<0.05, ##p<0.01) were compared.

[2] = system: collagen synthesis in Human skin fibroblasts; assay: Collagen synthesis effect in skin fibroblasts (Procollagen Type1-Peptide EIA); assay type: cell-based; details: 24-hr culture, maximum increase (up to) relative to PBS control, FIG. 3
Protocol: as §1, with “collagen synthesis” for “collagenase (MMP-1) inhibition”, “containing” for “including”, “collagen” for “collagenase (MMP-1)”, “Procollagen Type1-Peptide (PIP) EIA” for “Human total MMP-1”, “(TaKaRa, Japan).” for “(R&D systems, USA).”
as §2, with “the effects” for “the MMP-1 production”, “of” for “of each”, “experimental groups” for “experimental group”, “the effects of” for “the MMP-1 productions by”, “(#p<0.05, ##<0.01)” for “(#p<0.05, ##p<0.01)”

collagenase (MMP-1) production decrease (collagenase (MMP-1)): about 20%
Substance: Arg-Pro-Lys-Pro-Gln-Gln-Phe-Phe-Gly-Leu-Met-NH2 [substance P]
decrease of amount of IL-6 induced by LPS [1]: about 20% | decrease of amount of NO induced by LPS (nitric oxide (NO)): about 10% | collagen synthesis increase [2]: about 20%
